In patent US6046228A, “Anti-viral pharmaceutical compositions containing saturated 1,2-dithiaheterocyclic compounds and uses thereof” (priority 1999, dated 2000):

What was measured:
Type in all cases: cell-based
[1] = system: monocyte-macrophage (Mo/M.PHI.) cultures; assay: cytotoxicity in monocyte-macrophage cultures
Protocol: (§1) Initial anti-HIV screening was performed with CEM-SS cells and HIV-1RFusing the XTT cytoprotection assay as previously described (Weislow et al., J. National Cancer Inst. 81: 577-586, (1989)). HIV-1 isolates included common laboratory stains (RF, IIIB and MN), as well as a panel of HIV-1 clinical isolates (Cushman et al., J. Med. Chem. 37: 3040-3050, (1994)). The pyridone-resistant HIV-1A17 isolate (Nunberg et al., J. Virol., 65: 4887-4892 (1991)) was obtained from Emilio Emini at Merck Sharpe and Dohme Laboratories. Phytohemagglutinin-stimulated human peripheral blood lymphocytes (PBLs) and fresh monocyte-macrophage (Mono/MF) cultures were prepared and utilized in antiviral assays as previously described (Rice et al., Proc. Nat'l. Academy Science, USA 90: 9721-9724, (1993)); (Cushman et al., J. Med. Chem. 37: 3040-3050, (1994)). EC50 values for these cultures indicate the drug concentration that provided a 50% reduction in viral p24 production. […] The compounds can be synthesized according to the teachings of Singh et al., Sulfur Letters 8: 107-114, (1988). The 4,5-cis-dihydroxy(1,1-dioxy-1,2,-dithiohexane) compound (NSC 624151) has been abbreviated as 624151 for convenience. MT-2, MT-4, U1, HeLa-CD4-LTR-β-gal and 174xCEM cells were obtained from the AIDS Research and Reference Program (National Institute of Allergy and Infectious Disease, National Institutes of Health, Bethesda, Md. USA), as were the HIV-2MS and the AZT-resistant HIV-1G910-6 isolates.

HIV-1 ROJO(SI) = assay: antiviral assay in PBL (p24), clinical isolate ROJO; details: Human immunodeficiency virus 1, cell-free p24
Protocol: as §1, with “MT-2, MT-4, U1, HeLa-CD4-LTR-β-gal and 174xCEM cells were obtained from the AIDS Research and Reference Program (National Institute of Allergy and Infectious Disease, National Institutes of Health, Bethesda, Md. USA), as were the HIV-2MS and the AZT-resistant HIV-1G910-6 isolates.” left out

HIV-1 BAKI(SI) = assay: antiviral assay in PBL (p24), clinical isolate BAKI; details: Human immunodeficiency virus 1, cell-free p24
Protocol: as §1, with “MT-2, MT-4, U1, HeLa-CD4-LTR-β-gal and 174xCEM cells were obtained from the AIDS Research and Reference Program (National Institute of Allergy and Infectious Disease, National Institutes of Health, Bethesda, Md. USA), as were the HIV-2MS and the AZT-resistant HIV-1G910-6 isolates.” left out

HIV-1 VIHU(NSI) = assay: antiviral assay in PBL (p24), clinical isolate VIHU; details: Human immunodeficiency virus 1, cell-free p24
Protocol: as §1, with “MT-2, MT-4, U1, HeLa-CD4-LTR-β-gal and 174xCEM cells were obtained from the AIDS Research and Reference Program (National Institute of Allergy and Infectious Disease, National Institutes of Health, Bethesda, Md. USA), as were the HIV-2MS and the AZT-resistant HIV-1G910-6 isolates.” left out

HIV-1 Ba-L = assay: antiviral assay in Mo/M.PHI. (p24), Ba-L; details: Human immunodeficiency virus 1, BAL, cell-free p24
Protocol: as §1, with “MT-2, MT-4, U1, HeLa-CD4-LTR-β-gal and 174xCEM cells were obtained from the AIDS Research and Reference Program (National Institute of Allergy and Infectious Disease, National Institutes of Health, Bethesda, Md. USA), as were the HIV-2MS and the AZT-resistant HIV-1G910-6 isolates.” left out

HIV-1 E-BPTU-181 = assay: XTT cytopathicity assay, drug resistant HIV-1; details: MT-2, E-BPTU-181
Protocol: as §1
(§2) ^a Anti-HIV studies utilizing lymphocytederived cell lines were
(§3) performed using the XTT cytopathicity assay, while antiviral assays

HIV-1 OC-100 = assay: XTT cytopathicity assay, drug resistant HIV-1; details: MT-2, OC-100
Protocol: as §1, §2, §3

HIV-1NL4-3 4XAZT = assay: XTT cytopathicity assay, NL4-3 site-directed RT mutant; details: MT-2, NL4-3 4XAZT
Protocol: as §1, §2, §3

HIV-1NL4-3 A986 = assay: as above; details: MT-2, NL4-3 A986
Protocol: as §1, §2, §3

HIV-1NL4-3 K103N = assay: as above; details: MT-2, NL4-3 K103N
Protocol: as §1, §2, §3

HIV-1NL4-3 L74V = assay: as above; details: MT-2, NL4-3 L74V
Protocol: as §1, §2, §3

HIV-1NL4-3 V1061 = assay: as above; details: MT-2, NL4-3 V1061
Protocol: as §1, §2, §3

HIV-1NL4-3 V1081 = assay: as above; details: MT-2, NL4-3 V1081
Protocol: as §1, §2, §3

HIV-1NL4-3 V179D = assay: as above; details: MT-2, NL4-3 V179D
Protocol: as §1, §2, §3

HIV-1NL4-3 Y181C = assay: as above; details: MT-2, NL4-3 Y181C
Protocol: as §1, §2, §3

HIV-1NL4-3 Y188C = assay: as above; details: MT-2, NL4-3 Y188C
Protocol: as §1, §2, §3

[2] = system: fusion of cells expressing CD4 and gp120; assay: fusion of target cells expressing CD4 and gp120; details: in words
[3] = system: HIV-1 from latently infected U1 cells; assay: virus production from TNF-α stimulated latently infected U1 cells; details: FIG. 3(A); for formation of infectious virus from infected cells: in words
Protocol: U1 cells latently infected with two copies of HIV-1 proviral DNA per cell (Clous et al., J. Immunol. 142: 431-438, (1989)) were treated with 5 ng/ml tumor necrosis factor-α(TNF-α) for 24 hours to stimulate production of HIV-1 virions, after which various concentrations of 624151 were added to the cultures and incubated for an additional 48 hours. Cultures were analyzed for cell viability by the XTT reduction assay and cells were counted and scored for viability by trypan blue exclusion. Cells pellets were lysed (0.5% Triton X-100, 300 mM NaCl, 50 mM Tris-HCl, pH 7.6, 10 μg/ml each of Leupeptin and aprotinin (Boehringer Mannheim), 1.8 mg/ml iodoacetamide (Sigma Chemical Co., St. Louis, Mo.) and 1.0 mg/ml the protease inhibitor Pefabloc SC (Boehringer Mannheim at 4° C. for 15 min. and then quantitated for viral p24 content by ELISA. Cell-free supernatant samples were collected and analyzed for virus content by p24 ELISA, and infectivity in cultures of 174xCEM cells. Briefly, serial 1/2 dilutions of the supernatant were placed with 5×10^3 174xCEM cells and cultured for 7 days, cell supernatants were analyzed for viral p24 content, and the number of infectious units/ml calculated. In addition, cell free supernatants were centrifuged at 17,000×g for 1 hour at 4° C. to collect virion pellets. Proteins from both the virion and cellular lysates were separated by 4-20% SDS-PAGE (50 μg protein per lane), blotted onto PVDF membranes, reacted with anti-p7 and anti-p24 antisera, and then probed with HRP-conjugated goat anti-rabbit IgG and subsequently viewed with Western Blot Chemiluminescence Reagent (Dupont NEN, Wilmington, Del.).
Once proviral DNA has integrated into the cellular DNA, compounds that act on replicative events during the pre-integrative phase of infection are without effect. However, the zinc fingers as a part of the Pr55^gag and Pr160^gag-pol participate in the post-integrative phase production of progeny infectious virions, and the zinc finger-reactive 624151 should affect those functions. To test this possibility, we evaluated the effects of 624151 on cell viability and the production of viral proteins and infectious virions from U1 cells that latently harbor two copies of HIV-1 proviral DNA. Stimulation of U1 cells with TNF-α results in the production of high levels of p24 and infectious virions.

O=S1(=O)C[C@H](O)[C@H](O)CS1 (relative stereo) [NSC 624151, cis-1,1-dioxo[1,2]dithiane-4,5-diol]
IC50 [1]: > 100 µM | EC50 (HIV-1 ROJO(SI)): 25 µM | EC50 (HIV-1 BAKI(SI)): 19 µM | EC50 (HIV-1 VIHU(NSI)): 12 µM | EC50 (HIV-1 Ba-L): 6.2 µM | EC50 (HIV-1 E-BPTU-181): 17 µM | EC50 (HIV-1 OC-100): 12.7 µM | EC50 (HIV-1NL4-3 4XAZT): 10.7 µM | EC50 (HIV-1NL4-3 A986): 26.5 µM | EC50 (HIV-1NL4-3 K103N): 17.3 µM | EC50 (HIV-1NL4-3 L74V): 19.8 µM | EC50 (HIV-1NL4-3 V1061): 20.8 µM | EC50 (HIV-1NL4-3 V1081): 20 µM | EC50 (HIV-1NL4-3 V179D): 20.2 µM | EC50 (HIV-1NL4-3 Y181C): 20.9 µM | EC50 (HIV-1NL4-3 Y188C): 19.4 µM | inhibition of fusion [2]: did not inhibit | formation of infectious virus from infected cells [3]: inhibition of the formation of infectious virus from HIV-1 infected cells | formation of infectious virus from infected cells ([3]; listed as 624151): prevention of the formation of infectious virus from previously infected cells | minimal effective concentration ([3]; Human immunodeficiency virus 1, 48 h, TNF-α stimulated U1 cells, read-out: concentration (as low as) at which infectious titer of released virions was effectively reduced): 3 µM | levels of intracellular or extracellular viral p24 ([3]; TNF-α stimulated U1 cells): did not dramatically reduce the levels of intracellular or extracellular viral p24
